According to PubChem BioAssay AID1918949 (Molecular Pharmacology Branch, DTP, NCI, 2023):

Test system: K24384-001-R-PDC complex spheroid viability
Assay: Anticancer human tumor K24384-001-R-PDC patient-derived pancreatic adenocarcinoma cell line growth inhibition
Conditions: for IC50: curve of first compound; for viability, T/C: stronger effect = lower value
Method in brief: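 Drug combinations with the LSD1 inhibitor iadademstat tested on tumor cells co-cultured as spheroids with endothelial cells and mesenchymal stem cells. Concentrations descended in half-log increments from clinical Cmax or 10 microM.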

[1] = second compound 0.1 µM, first compound 0.00316 µM
[2] = second compound 0.1 µM, first compound 0.01 µM
[3] = second compound 0.1 µM, first compound 0.0316 µM
[4] = second compound 0.1 µM, first compound 0.1 µM
[5] = second compound 0.316 µM, first compound 0.00316 µM
[6] = second compound 0.316 µM, first compound 0.01 µM
[7] = second compound 0.316 µM, first compound 0.0316 µM
[8] = second compound 0.316 µM, first compound 0.1 µM
[9] = second compound 1 µM, first compound 0.00316 µM
[10] = second compound 1 µM, first compound 0.01 µM
[11] = second compound 1 µM, first compound 0.0316 µM
[12] = second compound 1 µM, first compound 0.1 µM
[13] = second compound 3.16 µM, first compound 0.00316 µM
[14] = second compound 3.16 µM, first compound 0.01 µM
[15] = second compound 3.16 µM, first compound 0.0316 µM
[16] = second compound 3.16 µM, first compound 0.1 µM
[17] = second compound 10 µM, first compound 0.00316 µM
[18] = second compound 10 µM, first compound 0.01 µM
[19] = second compound 10 µM, first compound 0.0316 µM
[20] = second compound 10 µM, first compound 0.1 µM
[21] = second compound 0.1 µM, first compound 0.000949 µM
[22] = second compound 0.1 µM, first compound 0.003 µM
[23] = second compound 0.1 µM, first compound 0.00949 µM
[24] = second compound 0.1 µM, first compound 0.03 µM
[25] = second compound 0.1 µM, first compound 0.0949 µM
[26] = second compound 0.1 µM, first compound 0.3 µM
[27] = second compound 0.316 µM, first compound 0.000949 µM
[28] = second compound 0.316 µM, first compound 0.003 µM
[29] = second compound 0.316 µM, first compound 0.00949 µM
[30] = second compound 0.316 µM, first compound 0.03 µM
[31] = second compound 0.316 µM, first compound 0.0949 µM
[32] = second compound 0.316 µM, first compound 0.3 µM
[33] = second compound 1 µM, first compound 0.000949 µM
[34] = second compound 1 µM, first compound 0.003 µM
[35] = second compound 1 µM, first compound 0.00949 µM
[36] = second compound 1 µM, first compound 0.03 µM
[37] = second compound 1 µM, first compound 0.0949 µM
[38] = second compound 1 µM, first compound 0.3 µM
[39] = second compound 3.16 µM, first compound 0.000949 µM
[40] = second compound 3.16 µM, first compound 0.003 µM
[41] = second compound 3.16 µM, first compound 0.00949 µM
[42] = second compound 3.16 µM, first compound 0.03 µM
[43] = second compound 3.16 µM, first compound 0.0949 µM
[44] = second compound 3.16 µM, first compound 0.3 µM
[45] = second compound 10 µM, first compound 0.000949 µM
[46] = second compound 10 µM, first compound 0.003 µM
[47] = second compound 10 µM, first compound 0.00949 µM
[48] = second compound 10 µM, first compound 0.03 µM
[49] = second compound 10 µM, first compound 0.0949 µM
[50] = second compound 10 µM, first compound 0.3 µM
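Note: spheroids exposed to agents for seven days before luminescence viability reading.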
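Throughout, for viability, T/C: 100% = DMSO vehicle control viability.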

CC[C@@]1(O)C(=O)OCc2c1cc1n(c2=O)Cc2cc3c(CN(C)C)c(O)ccc3nc2-1 + NC1CCC(NC2CC2c2ccccc2)CC1
IC50 (second compound 0.1 µM): 89.9 nM | IC50 (second compound 0.316 µM): > 100 nM | IC50 (second compound 1 µM): 88.6 nM | IC50 (second compound 3.16 µM): 84.5 nM | IC50 (second compound 10 µM): > 100 nM | viability, T/C (second compound 0.1 µM, first compound 0.000316 µM): 93.1% | viability, T/C (second compound 0.1 µM, first compound 0.001 µM): 87.2% | viability, T/C [1]: 77.6% | viability, T/C [2]: 68.9% | viability, T/C [3]: 61.2% | viability, T/C [4]: 48.1% | viability, T/C (second compound 0.316 µM, first compound 0.000316 µM): 99.3% | viability, T/C (second compound 0.316 µM, first compound 0.001 µM): 81.2% | viability, T/C [5]: 82.3% | viability, T/C [6]: 84% | viability, T/C [7]: 70.2% | viability, T/C [8]: 49.6% | viability, T/C (second compound 1 µM, first compound 0.000316 µM): 89.5% | viability, T/C (second compound 1 µM, first compound 0.001 µM): 82.7% | viability, T/C [9]: 75.5% | viability, T/C [10]: 59% | viability, T/C [11]: 54.6% | viability, T/C [12]: 49% | viability, T/C (second compound 3.16 µM, first compound 0.000316 µM): 93.7% | viability, T/C (second compound 3.16 µM, first compound 0.001 µM): 91.8% | viability, T/C [13]: 81% | viability, T/C [14]: 77% | viability, T/C [15]: 64.5% | viability, T/C [16]: 47% | viability, T/C (second compound 10 µM, first compound 0.000316 µM): 101% | viability, T/C (second compound 10 µM, first compound 0.001 µM): 88.2% | viability, T/C [17]: 88.7% | viability, T/C [18]: 61.7% | viability, T/C [19]: 53.9% | viability, T/C [20]: 49.8%

CCc1c2c(nc3ccc(O)cc13)-c1cc3c(c(=O)n1C2)COC(=O)[C@]3(O)CC + NC1CCC(NC2CC2c2ccccc2)CC1
IC50 (second compound 0.1 µM): < 0.949 nM | IC50 (second compound 0.316 µM): < 0.949 nM | IC50 (second compound 1 µM): < 0.949 nM | IC50 (second compound 3.16 µM): < 0.949 nM | IC50 (second compound 10 µM): < 0.949 nM | viability, T/C [21]: 46.4% | viability, T/C [22]: 36.2% | viability, T/C [23]: 30.9% | viability, T/C [24]: 8.66% | viability, T/C [25]: 5.82% | viability, T/C [26]: 4.86% | viability, T/C [27]: 46.2% | viability, T/C [28]: 43.4% | viability, T/C [29]: 35% | viability, T/C [30]: 10.1% | viability, T/C [31]: 4.59% | viability, T/C [32]: 4.24% | viability, T/C [33]: 41.5% | viability, T/C [34]: 39% | viability, T/C [35]: 31.5% | viability, T/C [36]: 9.09% | viability, T/C [37]: 5.26% | viability, T/C [38]: 4.62% | viability, T/C [39]: 47.4% | viability, T/C [40]: 43% | viability, T/C [41]: 33.2% | viability, T/C [42]: 9.39% | viability, T/C [43]: 4.03% | viability, T/C [44]: 4.04% | viability, T/C [45]: 45% | viability, T/C [46]: 38.1% | viability, T/C [47]: 26.3% | viability, T/C [48]: 9.03% | viability, T/C [49]: 3.67% | viability, T/C [50]: 3.1%

COc1cc(C2c3cc4c(cc3C(OC3OC5COC(C)OC5C(O)C3O)C3COC(=O)C23)OCO4)cc(OC)c1O (stereo not given) + NC1CCC(NC2CC2c2ccccc2)CC1
IC50 (second compound 0.1 µM): 1330 nM | IC50 (second compound 0.316 µM): 1860 nM | IC50 (second compound 1 µM): 2650 nM | IC50 (second compound 3.16 µM): > 3000 nM | IC50 (second compound 10 µM): 2620 nM | viability, T/C [23]: 91.2% | viability, T/C [24]: 92.8% | viability, T/C [25]: 86.4% | viability, T/C [26]: 65.3% | viability, T/C (second compound 0.1 µM, first compound 0.949 µM): 55.9% | viability, T/C (second compound 0.1 µM, first compound 3 µM): 42.8% | viability, T/C [29]: 107% | viability, T/C [30]: 83.3% | viability, T/C [31]: 79.7% | viability, T/C [32]: 75.7% | viability, T/C (second compound 0.316 µM, first compound 0.949 µM): 57.2% | viability, T/C (second compound 0.316 µM, first compound 3 µM): 43.2% | viability, T/C [35]: 98.4% | viability, T/C [36]: 97.2% | viability, T/C [37]: 69.3% | viability, T/C [38]: 72.6% | viability, T/C (second compound 1 µM, first compound 0.949 µM): 59.6% | viability, T/C (second compound 1 µM, first compound 3 µM): 47.8% | viability, T/C [41]: 87.8% | viability, T/C [42]: 102% | viability, T/C [43]: 67.9% | viability, T/C [44]: 65% | viability, T/C (second compound 3.16 µM, first compound 0.949 µM): 57.9% | viability, T/C (second compound 3.16 µM, first compound 3 µM): 54% | viability, T/C [47]: 88.2% | viability, T/C [48]: 98.4% | viability, T/C [49]: 90.1% | viability, T/C [50]: 73.2% | viability, T/C (second compound 10 µM, first compound 0.949 µM): 66% | viability, T/C (second compound 10 µM, first compound 3 µM): 47.4%

Nc1ccn(C2OC(CO)C(O)C2(F)F)c(=O)n1 (stereo not given) + NC1CCC(NC2CC2c2ccccc2)CC1
IC50 (second compound 0.1 µM): 57.9 nM | IC50 (second compound 0.316 µM): 49.6 nM | IC50 (second compound 1 µM): 44.5 nM | IC50 (second compound 3.16 µM): 87.6 nM | IC50 (second compound 10 µM): 53.2 nM | viability, T/C [21]: 77.4% | viability, T/C [22]: 68.3% | viability, T/C [23]: 67.8% | viability, T/C [24]: 53.5% | viability, T/C [25]: 46.8% | viability, T/C [26]: 33% | viability, T/C [27]: 73.9% | viability, T/C [28]: 72% | viability, T/C [29]: 67.3% | viability, T/C [30]: 52.9% | viability, T/C [31]: 46% | viability, T/C [32]: 39.5% | viability, T/C [33]: 85.9% | viability, T/C [34]: 68.1% | viability, T/C [35]: 62.4% | viability, T/C [36]: 50.4% | viability, T/C [37]: 48% | viability, T/C [38]: 41.9% | viability, T/C [39]: 84.3% | viability, T/C [40]: 77.5% | viability, T/C [41]: 70.4% | viability, T/C [42]: 59.9% | viability, T/C [43]: 48.7% | viability, T/C [44]: 41.3% | viability, T/C [45]: 66.7% | viability, T/C [46]: 68.5% | viability, T/C [47]: 69.3% | viability, T/C [48]: 54.6% | viability, T/C [49]: 45.8% | viability, T/C [50]: 39.2%

Nc1ncn(C2CC(O)C(CO)O2)c(=O)n1 (stereo not given) + NC1CCC(NC2CC2c2ccccc2)CC1
IC50 (second compound 0.1 µM): > 1000 nM | IC50 (second compound 0.316 µM): > 1000 nM | IC50 (second compound 1 µM): > 1000 nM | IC50 (second compound 3.16 µM): > 1000 nM | IC50 (second compound 10 µM): > 1000 nM | viability, T/C [1]: 78.3% | viability, T/C [2]: 93.8% | viability, T/C [3]: 80.4% | viability, T/C [4]: 73.6% | viability, T/C (second compound 0.1 µM, first compound 0.316 µM): 79.5% | viability, T/C (second compound 0.1 µM, first compound 1 µM): 73.5% | viability, T/C [5]: 88% | viability, T/C [6]: 79.4% | viability, T/C [7]: 87.4% | viability, T/C [8]: 82.5% | viability, T/C (second compound 0.316 µM, first compound 0.316 µM): 76.2% | viability, T/C (second compound 0.316 µM, first compound 1 µM): 85.1% | viability, T/C [9]: 88.4% | viability, T/C [10]: 80.5% | viability, T/C [11]: 82.6% | viability, T/C [12]: 68.3% | viability, T/C (second compound 1 µM, first compound 0.316 µM): 78.6% | viability, T/C (second compound 1 µM, first compound 1 µM): 70.1% | viability, T/C [13]: 89.8% | viability, T/C [14]: 88% | viability, T/C [15]: 105% | viability, T/C [16]: 76.6% | viability, T/C (second compound 3.16 µM, first compound 0.316 µM): 59.7% | viability, T/C (second compound 3.16 µM, first compound 1 µM): 60.9% | viability, T/C [17]: 92.9% | viability, T/C [18]: 83.8% | viability, T/C [19]: 87.8% | viability, T/C [20]: 63.2% | viability, T/C (second compound 10 µM, first compound 0.316 µM): 73.7% | viability, T/C (second compound 10 µM, first compound 1 µM): 72.7%
